Consider three compounds from patent publication US20240083888A1, “SMALL MOLECULE INHIBITOR FOR CATHEPSIN C AND MEDICINAL USE THEREOF” (REISTONE BIOPHARMA COMPANY LIMITED, priority 2020, published 2024).

Data set [1] in a line: Pharmacokinetic experiment in beagle dogs. Conditions: for Vd: read-out: Vdss. The data set is classed as in vivo. On the set-up: clearance: unit not given here. On the procedure: Beagle dogs (male, 9 to 11 kg)
Pharmacokinetic characteristics of the compounds in beagle dogs after intravenous or oral administration were determined by standard protocols. In the experiment, the compound was formulated into a clear solution, and administered to beagle dogs by single intravenous injection or oral administration. The intravenous injection vehicle was a mixed vehicle of 5% dimethyl sulfoxide and 95% (28% aqueous hydroxypropyl beta cyclodextrin solution). The oral vehicle is a solution of 0.5% hydroxypropylmethylcellulose and 0.1% polysorbate 80 in water. Whole blood samples within 24 hours were collected, and the supernatants were separated to obtain plasma samples. The sample was centrifuged to obtain the supernatant, to which an equal volume of water was added. The resulting solution was centrifuged to obtain the supernatant, which was injected into the analysis machine. Quantitative analysis of plasma concentration was carried out by LC-MS/MS analysis method, and the pharmacokinetic parameters, such as peak concentration (Cmax), clearance (Cl), half-life (T1/2), volume of distribution (Vdss) and area under the drug-time curve (AUC), were calculated.

A short description of data set [2]: Pharmacokinetic experiment in BALB/c mice. The data set is classed as in vivo. Conditions: for AUC(0-t) / clearance / half-life / Vd / Tmax / bioavailability: male, mouse, plasma; for Vd: read-out: Vdss. How it is done: BALB/c mice (male, 20 to 30 g, fasting)
Pharmacokinetic characteristics of the compounds in rodent after intravenous or oral administration were determined by standard protocols. In the experiment, the compound was formulated into a clear solution, and administered to mice by single intravenous injection or oral administration. The intravenous injection vehicle was a mixed vehicle of 500 dimethyl sulfoxide and 9500 (3000 aqueous sulfobutylether cyclodextrin solution). The oral vehicle is a solution of 0.50% hydroxypropylmethylcellulose and 0.10% polysorbate 80 in water. Whole blood samples within 24 hours were collected, and the supernatants were separated to obtain plasma samples. Quantitative analysis of plasma concentration was carried out by LC-MS/MS analysis method, and the pharmacokinetic parameters, such as peak concentration (Cmax), clearance (Cl), half-life (T1/2), volume of distribution (Vdss) and area under the drug-time curve (AUC), were calculated.

In data set [3] the test system is neutrophil elastase (NE) downstream of CatC. In words: Target binding model in C57BL/6 mice: NE protease activity in bone marrow. In kind it is in vivo. Conditions: 3 mg/kg PO, 8 days, bone marrow cell lysate, female C57BL/6 mice. How it is done:
1. Experimental protocol: In order to investigate the inhibitory effect of the compounds on the activity of neutrophil elastase (hereinafter referred to as NE) downstream of CatC in neutrophil, female C57BL/6 mice were administered according to the following table:
2. Experimental procedures: The compound or vehicle control was administered continuously for 8 days. On Day 1 to 7, the compound or vehicle control was administered twice a day with an administration interval of 6 hours. On Day 8, the test material was collected one hour after the first administration. […] The sample was washed once with Dulbecco's phosphate buffer, centrifuged at 400 g for 5 minutes and counted. […] The supernatant was stored at −80° C. until protease activity was determined. The protease activity in the cell lysates of each group was determined using the NE protease activity detection kit (Sigma-Aldrich MAK246). 7.5 μL of 3× diluted bone marrow cell lysate or 7.5 μL of double-diluted NE standard and 7.5 μL of 25× diluted substrate were added to a 384-well plate, and the NE protease activity was immediately monitored in real-time at Ex 380 nm and Em 500 nm for 30 minutes. The RFU within the linear reaction time was determined, and the NE protease activity (ng/ml) in the sample was calibrated by the standard curve.

For another data set, the target named is CatC (Homo sapiens (Human), UniProt P53634). In words: In vitro CatC cell activity experiment in U937 cell line. The data set is classed as cell-based. On the procedure:
The U937 cell line was resuscitated and passed for about two generations, and the cell line with good growth status was selected. The cell suspension was transferred into a centrifuge tube, and centrifuged at 800 to 1000 rpm for 3 to 5 minutes. The supernatant was discarded. An appropriate volume of culture medium was added to the centrifuge tube, which was gently pipetted to resuspend the cells evenly. The cells were counted using a Vi-Cell XR cell counter. The cell suspension was adjusted to an appropriate concentration. The cell suspension was added into a 384-well plate ([…]). The compound was formulated into a 10 mM solution with DMSO. The compound was diluted with DMSO to obtain a 1 mM solution, and a semi-logarithmi dilution was carried out by HPD300 with DMSO to obtain 10 concentrations. Gly-Phe-AFC was formulated into a 35 mM solution with DMSO and divided. […] After adding the compounds and incubating for 1 hour in an incubator, substrate-AFC was added (12.5 μL was added to the plate). The plate was incubated for 30 minutes and read. […] XLFit was used to draw the drug efficacy inhibition rate curve and calculate the IC50 value. 4-parameter model [fit=(A+((B−A)/(1+((C/x)^D))))] was used.

A further data set addresses rhCatC (Homo sapiens (Human), UniProt P53634). In words: In vitro enzyme activity experiment of rhCatC (AMC fluorescence assay). The data set is classed as biochemical. Conditions: rhCatC enzyme, substrate H-Gly-Arg-AMC; read-out: Biological activity IC50. On the procedure: The in vitro inhibitory effect of compounds and positive control on rhCatC enzyme activity was evaluated by AMC fluorescence assay. rhCatC can catalyze the reaction of substrate peptide H-Gly-Arg-AMC, and release AMC to generate fluorescence. […] The compound was diluted with DMSO to a 384-well echo plate at a concentration of 100× of the highest concentration at the beginning of the experiment. 0.2 μL of the diluted compound was pipetted to a black-bottomed 384-well reaction plate for later use. The negative control well was DMSO. • 2) Activation of rhCatC: RhCatC and rhCatL were added to the activation buffer to obtain a final concentration of rhCatC of 100 μg/mL and a final concentration of rhCatL of 20 μg/mL, and incubated at room temperature for 1 hour. • 3) Enzyme activity reaction: Activated rhCatC was diluted to 0.4 μg/mL with the reaction buffer. The solution was added to the black-bottom 384-well reaction plate ([…]). 10 μL of the buffer was added for the vehicle control group. The plate containing compounds in its wells was incubated at room temperature for 30 minutes.
The RLU data was read, the inhibition rate was calculated, and the IC50 value was calculated according to the fitting curve of concentration and inhibition rate.

As usually defined, the AUC(0-t) is the area under the concentration-time curve up to a stated or last time point. The half-life is the time needed for the level to fall by half in the phase considered. As usually defined, the Tmax is the time from dosing to the highest level. A word on the IC50: it is the concentration needed to halve the response being measured.

Sequence of rhCatC (P53634 25-134): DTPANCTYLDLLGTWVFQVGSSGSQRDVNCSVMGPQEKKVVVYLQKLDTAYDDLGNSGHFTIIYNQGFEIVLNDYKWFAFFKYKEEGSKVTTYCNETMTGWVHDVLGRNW
Sequence of rhCatC (P53634 231-394): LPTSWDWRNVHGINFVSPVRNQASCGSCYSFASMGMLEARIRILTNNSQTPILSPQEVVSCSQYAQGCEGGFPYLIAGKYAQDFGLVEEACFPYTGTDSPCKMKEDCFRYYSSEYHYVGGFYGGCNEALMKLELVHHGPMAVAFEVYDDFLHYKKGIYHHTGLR
Sequence of rhCatC (P53634 395-463): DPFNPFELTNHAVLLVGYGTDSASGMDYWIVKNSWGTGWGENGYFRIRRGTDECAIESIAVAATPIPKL
Sequence of CatC (P53634 25-134): as the sequence (P53634 25-134) above
Sequence of CatC (P53634 231-394): as the sequence (P53634 231-394) above
Sequence of CatC (P53634 395-463): as the sequence (P53634 395-463) above

Take `Cn1c(=O)oc2ccc(-c3ccc(C[C@@H](C#N)NC(=O)[C@@H]4CNCCCO4)cc3)cc21` [AZD7986, reference compound]: in data set [1] (male, dog, plasma, IV, 1 mg/kg), the AUC(0-t) came to 1410 ng·h/mL, the half-life is 13.5 h and the Vd stood at 9.26 L/kg. Moreover, in data set [1] (male, dog, plasma, PO, 2 mg/kg), the exposure AUC(0-t) was 3670 ng·h/mL, the time to peak (Tmax) worked out at 1.67 h, the bioavailability is 104% and the half-life was 15.3 h. Besides, in data set [2] (IV, 2 mg/kg), the exposure AUC(0-t) was found to be 2120 ng·h/mL, the clearance came to 15.1 mL/min/kg, the half-life is 2.74 h and the Vd worked out at 2.34 L/kg. In data set [2] (PO, 5 mg/kg), the area under the curve AUC(0-t) stood at 2130 ng·h/mL, the Tmax came to 1.5 h, the bioavailability came out at 40.2% and the half-life was 3.18 h.

Regarding `N#Cc1ccc2c(c1)COc1cc(C[C@@H](C#N)NC(=O)[C@@H]3CNCCCO3)c(F)cc1-2` [Compound 14, (S)—N—((S)-1-Cyano-2-(8-cyano-2-fluoro-6H-benzo[c]chromen-3-yl)ethyl)-1,4-oxazepane-2-carboxamide], the “inhibitory rate of NE protease activity compared with AZD7986” value in data set [3] was “higher inhibitory rate of NE protease activity than the reference compound AZD7986”. Further, the “PK properties compared with AZD7986” value in data set [1] is listed as “better PK properties than AZD7986”. Besides, in data set [1] (IV), the “decrease of clearance rate compared with AZD7986” value is reported as “about 3 times” and the “increase of intravenous exposure compared with AZD7986” value worked out at 3.4 times. In data set [1] (PO), the “increase of oral exposure compared with AZD7986” value stood at 3.0 times. Further, in data set [1] (male, dog, plasma, IV, 1 mg/kg), the AUC(0-t) came out at 4790 ng·h/mL, the clearance was found to be 0.172, the half-life is 10.2 h and the Vd amounted to 2.29 L/kg. In addition, in data set [1] (male, dog, plasma, PO, 2 mg/kg), the AUC(0-t) was 10900 ng·h/mL, the time of peak concentration (Tmax) came to 3.33 h, the bioavailability came to 100% and the half-life is 12.3 h. Also, in data set [2], the “PK properties compared with AZD7986” value was “better PK properties than AZD7986” and the “oral bioavailability compared with AZD7986” value was “increased”. Moreover, in data set [2] (IV), the “decrease of clearance rate compared with AZD7986” value is on record as “about 1.8 times” and the “increase of intravenous exposure compared with AZD7986” value was 1.8 times. The “increase of oral exposure compared with AZD7986” value in data set [2] (PO) is reported as 3.1 times. Moreover, in data set [2] (IV, 2 mg/kg), the AUC(0-t) came out at 3770 ng·h/mL, the clearance was 8.49 mL/min/kg, the half-life was 3.08 h and the Vd stood at 1.75 L/kg. In addition, in data set [2] (PO, 5 mg/kg), the AUC(0-t) was 6610 ng·h/mL, the Tmax is 0.5 h, the bioavailability was 65.3% and the half-life is 2.69 h. This compound also showed an IC50 against CatC of 6.1 nM. For the same compound, the IC50 on rhCatC stood at 5.31 nM.

`N#Cc1ccc2c(c1)-c1cc(F)c(C[C@@H](C#N)NC(=O)[C@@H]3CNCCCO3)cc1OC2` [Compound 32, (S)—N—((S)-1-Cyano-2-(9-cyano-2-fluoro-6H-benzo[c]chromen-3-yl)ethyl)-1,4-oxazepane-2-carboxamide]: the “inhibitory rate of NE protease activity compared with AZD7986” value in data set [3] was “higher inhibitory rate of NE protease activity than the reference compound AZD7986”. Moreover, the half-maximal inhibitory concentration (IC50) at CatC was determined as 7 nM; on rhCatC it was 13 nM.
